Measured values as given in PMC7311426, “An amphipathic peptide with antibiotic activity against multidrug-resistant Gram-negative bacteria” (Nature Communications, 2020).
≈ marks a conversion by molar mass, not a printed value. Residues, ends and D or L forms follow the SMILES beside them.

What was measured:
Assay in all cases: microbe, parasite or virus in culture
A. baumannii = A. baumannii ATCC 19636 type strain; MHB; mode of 6 replicates
Experimental: (§1) Antimicrobial activity of arenicin-3 and its analogs was tested against a panel of bacterial and yeast strains by in vitro broth microdilution (BMD) assay with minimum inhibitory concentration (MIC) determination. Strains were purchased from American Type Culture Collection (ATCC) or obtained from clinical collaborators (full strain profiles provided in Supplementary Data 3). All peptides were prepared in Ringer’s acetate solution, and subsequently diluted fresh in water for each independent assay.
(§2) Assays were performed in Mueller Hinton broth (MHB; BD, Cat. No. 211443) for bacteria, and yeast extract-peptone dextrose (YPD; Sigma-Aldrich, Y1500) for yeast. The concentrations of the peptides and comparator antibiotics/antifungals in the assay wells ranged from either 128 or 64 μg mL^−1, to 0.06 or 0.03 μg mL^−1 as a 12-point dose response plated as a 2-fold dilution series across the wells of the plate in duplicate for each independent biological replicate, using a final cell density of 5 × 10^5 CFU mL^−1 and 2.5 × 10^3 CFU mL^−1 for bacteria and yeast respectively. Final assay volumes were 100 μL per well with MICs determined visually following 18-20 h incubation at 37 °C for bacteria, 24 h incubation at 35 °C for Candida albicans, and 24 h incubation at 35 °C with resazurin addition (0.006%; Sigma-Aldrich, Cat # R7017) for a further 3 h for Cryptococcus neoformans, without shaking. Additional bacterial and yeast susceptibility assays were performed in Cation-Adjusted Mueller Hinton Broth (CAMHB; BD, Cat No. 212322) and Roswell Park Memorial Institute (RPMI) 1640 culture medium (Life Technologies Australia, Cat No. 21870092), respectively, as recommended by CLSI guidelines (M07 11th ed[36] and M27 4th ed[37]). […] Agarose MICs were determined in MHB with 1% agarose (Bioline molecular grade; Cat no: BIO-41025; high purity, high gel strength). All experiments were performed a minimum of six replicates (n ≥ 6).

E. coli = E. coli ATCC 25922 FDA control strain; MHB; mode of 6 independent biological replicates
Experimental: as §1, §2

K. pneumoniae = K. pneumoniae ATCC 13883 type strain (polymyxin/colistin heteroresistant); MHB; mode of 6 replicates
Experimental: as §1, §2

P. aeruginosa = P. aeruginosa ATCC 27853 control strain; MHB; mode of 6 replicates
Experimental: as §1, §2

S. aureus = S. aureus ATCC 25923 MSSA; MHB; mode of 6 replicates
Experimental: as §1, §2

[1] = test system: A. baumannii clinical isolates
Experimental: The in vitro activity of AA139 and comparator antimicrobials was determined in two panels of clinical isolates of E. coli, K. pneumoniae, P. aeruginosa, and A. baumannii (Supplementary Table 3), and MIC90 presented. The US panel consisted of 331 clinical isolates from 2010 to 2012. It was tested by BMD in accordance with the CLSI guidelines (M07-A9, 2012)[39]. […] AA139 was diluted in 0.01% acetic acid/0.1% bovine serum albumin. Sterile polypropylene culture cluster round-bottom 96-well plates (Costar # 3879) were used for testing. The worldwide panel consisted of 445 clinical isolates from 2011 to 2013, geographically divided into Asia, Europe, North America, and Rest of World (Middle East, Latin America, Africa, and South Pacific) with each region representing ~25% of the isolates. It was tested by broth microdilution in accordance with the CLSI guidelines (M07-A9, 2012)[39]. […] The test media was CAMHB (Becton Dickinson). AA139 and polymyxin B were tested in media supplemented with 0.002% Tween 80 (Calbiochem). MIC90 values were calculated for all or subsets of the isolates. MIC correlation between AA139 and colistin was analyzed with data from the US panel.

**Q.** For `CC(C)[C@@H]1NC(=O)[C@H](Cc2ccc(O)cc2)NC(=O)[C@H](Cc2c[nH]c3ccccc23)NC(=O)[C@@H](NC(=O)[C@@H](N)Cc2ccccc2)CSSC[C@@H](C(=O)N[C@@H](CC(N)=O)C(=O)O)NC(=O)[C@H](CCCNC(=N)N)NC(=O)[C@H](CCCNC(=N)N)NC(=O)[C@H](Cc2ccc(O)cc2)NC(=O)[C@@H]2CSSC[C@H](NC1=O)C(=O)N[C@@H](C)C(=O)N[C@@H](CCCNC(=N)N)C(=O)N[C@@H](CCCNC(=N)N)C(=O)N[C@@H](CC(N)=O)C(=O)NCC(=O)N[C@@H](C)C(=O)N[C@@H](CCCNC(=N)N)C(=O)N[C@@H](C(C)C)C(=O)N2` [AB0015] (HELM PEPTIDE1{F.C.W.Y.V.C.A.R.R.N.G.A.R.V.C.Y.R.R.C.N}$PEPTIDE1,PEPTIDE1,2:R3-19:R3|PEPTIDE1,PEPTIDE1,6:R3-15:R3$$$V2.0), which “BMD MIC” value (A. baumannii) is on record?
**A.** The value was 0.5 µg/mL.

**Q.** What about the “BMD MIC” value (E. coli) of the same molecule?
**A.** Its value is 0.5 µg/mL.

**Q.** What about the “BMD MIC” value (K. pneumoniae) of the same molecule?
**A.** Its value is 2 µg/mL.

**Q.** And the “BMD MIC” value (P. aeruginosa)?
**A.** The value was 1 µg/mL.

**Q.** What about the “BMD MIC” value (S. aureus) of the same molecule?
**A.** The value was >64 µg/mL.

**Q.** Which results are given for `C[C@@H](O)[C@H]1C(=O)N2C(C(=O)O)=C(S[C@@H]3CN[C@H](C(=O)N(C)C)C3)[C@H](C)[C@H]12` [Mero]?
**A.** MIC ([1]; US isolates 2010-2012, isolate CID 1919446, Rep 1): 1 µg/mL (≈ 2.61 µM); MIC ([1]; US isolates 2010-2012, isolate CID 1919446, Rep 2): 2 µg/mL (≈ 5.22 µM); MIC ([1]; US isolates 2010-2012, isolate CID 1919519, Rep 1): > 16 µg/mL; MIC ([1]; US isolates 2010-2012, isolate CID 1919519, Rep 2): > 16 µg/mL; MIC ([1]; US isolates 2010-2012, isolate CID 1919714, Rep 1): > 16 µg/mL; MIC ([1]; US isolates 2010-2012, isolate CID 1919714, Rep 2): > 16 µg/mL; MIC ([1]; US isolates 2010-2012, isolate CID 1919942, Rep 1): 1 µg/mL (≈ 2.61 µM); MIC ([1]; US isolates 2010-2012, isolate CID 1919942, Rep 2): 1 µg/mL (≈ 2.61 µM); MIC ([1]; US isolates 2010-2012, isolate CID 1930670, Rep 1): 16 µg/mL (≈ 41.7 µM); MIC ([1]; US isolates 2010-2012, isolate CID 1930670, Rep 2): > 16 µg/mL; MIC ([1]; US isolates 2010-2012, isolate CID 1930676, Rep 1): 0.5 µg/mL (≈ 1.3 µM); MIC ([1]; US isolates 2010-2012, isolate CID 1930676, Rep 2): 0.5 µg/mL (≈ 1.3 µM); MIC ([1]; US isolates 2010-2012, isolate CID 2727597, Rep 1): > 16 µg/mL; MIC ([1]; US isolates 2010-2012, isolate CID 2727597, Rep 2): > 16 µg/mL; MIC ([1]; US isolates 2010-2012, isolate CID 2727598, Rep 1): > 16 µg/mL; MIC ([1]; US isolates 2010-2012, isolate CID 2727598, Rep 2): > 16 µg/mL; MIC ([1]; US isolates 2010-2012, isolate CID 2727898, Rep 1): 0.5 µg/mL (≈ 1.3 µM); MIC ([1]; US isolates 2010-2012, isolate CID 2727898, Rep 2): 0.5 µg/mL (≈ 1.3 µM); MIC ([1]; US isolates 2010-2012, isolate CID 2728115, Rep 1): > 16 µg/mL; MIC ([1]; US isolates 2010-2012, isolate CID 2728115, Rep 2): > 16 µg/mL; MIC ([1]; US isolates 2010-2012, isolate CID 2728119, Rep 1): > 16 µg/mL; MIC ([1]; US isolates 2010-2012, isolate CID 2728119, Rep 2): > 16 µg/mL; MIC ([1]; US isolates 2010-2012, isolate CID 2728650, Rep 1): 16 µg/mL (≈ 41.7 µM); MIC ([1]; US isolates 2010-2012, isolate CID 2728650, Rep 2): 16 µg/mL (≈ 41.7 µM); MIC ([1]; US isolates 2010-2012, isolate CID 2728663, Rep 1): 1 µg/mL (≈ 2.61 µM); MIC ([1]; US isolates 2010-2012, isolate CID 2728663, Rep 2): 2 µg/mL (≈ 5.22 µM); MIC ([1]; US isolates 2010-2012, isolate CID 2732481, Rep 1): > 16 µg/mL; MIC ([1]; US isolates 2010-2012, isolate CID 2732481, Rep 2): > 16 µg/mL; MIC ([1]; US isolates 2010-2012, isolate CID 2732486, Rep 1): > 16 µg/mL; MIC ([1]; US isolates 2010-2012, isolate CID 2732486, Rep 2): > 16 µg/mL; MIC ([1]; US isolates 2010-2012, isolate CID 2762740, Rep 1): > 16 µg/mL; MIC ([1]; US isolates 2010-2012, isolate CID 2762740, Rep 2): > 16 µg/mL; MIC ([1]; US isolates 2010-2012, isolate CID 2801947, Rep 1): 0.25 µg/mL (≈ 0.652 µM); MIC ([1]; US isolates 2010-2012, isolate CID 2801947, Rep 2): 0.25 µg/mL (≈ 0.652 µM); MIC ([1]; US isolates 2010-2012, isolate CID 2801949, Rep 1): 1 µg/mL (≈ 2.61 µM); MIC ([1]; US isolates 2010-2012, isolate CID 2801949, Rep 2): 0.25 µg/mL (≈ 0.652 µM); MIC ([1]; US isolates 2010-2012, isolate CID 2802027, Rep 1): > 16 µg/mL; MIC ([1]; US isolates 2010-2012, isolate CID 2802027, Rep 2): > 16 µg/mL; MIC ([1]; US isolates 2010-2012, isolate CID 2802028, Rep 1): > 16 µg/mL; MIC ([1]; US isolates 2010-2012, isolate CID 2802028, Rep 2): > 16 µg/mL; MIC ([1]; US isolates 2010-2012, isolate CID 2802029, Rep 1): > 16 µg/mL; MIC ([1]; US isolates 2010-2012, isolate CID 2802029, Rep 2): > 16 µg/mL; MIC ([1]; US isolates 2010-2012, isolate CID 2802031, Rep 1): 1 µg/mL (≈ 2.61 µM); MIC ([1]; US isolates 2010-2012, isolate CID 2802031, Rep 2): 1 µg/mL (≈ 2.61 µM); MIC ([1]; US isolates 2010-2012, isolate CID 2802109, Rep 2): > 16 µg/mL; MIC ([1]; US isolates 2010-2012, isolate CID 2802111, Rep 2): > 16 µg/mL; MIC ([1]; US isolates 2010-2012, isolate CID 2802187, Rep 1): 1 µg/mL (≈ 2.61 µM); MIC ([1]; US isolates 2010-2012, isolate CID 2802187, Rep 2): 2 µg/mL (≈ 5.22 µM)
